The compounds below were run against human Cat S (Homo sapiens, UniProt P25774) (assay: Cathepsin enzyme inhibition assay (fluorogenic peptide substrate cleavage)). Conditions: human Cat S 1 nM; substrate Z-Val-Val-Arg-AMC 20 μM; pH 6.5; fluorescence over 20 minutes.
Format: biochemical
Method: Cathepsin Enzyme Inhibition Assay
Enzyme activity is measured by observing the increase in fluorescence intensity caused by cleavage of a peptide substrate containing a fluorophore whose emission is quenched in the intact peptide.
Assay buffer: 100 mM potassium phosphate pH 6.5, EDTA-Na 5 mM, Triton X-100 0.001%, DTT 5 mM. Enzymes (all at 1 nM): human and mouse Cathepsin S, Cat K, Cat B, Cat L. Substrate (20 μM): Z-Val-Val-Arg-AMC, except for Cat K which uses Z-Leu-Arg-AMC (both from Bachem).
AMC=7-Amino-4-Methyl-Coumarin.
DTT=dithiothreitol. Final volume: 100 μL.
Excitation 360 nm, Emission 465 nm.
Enzyme is added to the substance dilutions in 96-well microtitre plates and the reaction is started with substrate. Fluorescence emission is measured over 20 minutes, during which time a linear increase is observed in the absence of inhibitor. IC50 are calculated by standard methods. Inhibition of human Cat S, mouse Cat S, human Cat K, mouse Cat K, human Cat B, mouse Cat B, human Cat L and mouse Cat L have been measured separately. The results obtained for human Cat S are expressed in the following table.

Sequence of human Cat S (P25774 115-331): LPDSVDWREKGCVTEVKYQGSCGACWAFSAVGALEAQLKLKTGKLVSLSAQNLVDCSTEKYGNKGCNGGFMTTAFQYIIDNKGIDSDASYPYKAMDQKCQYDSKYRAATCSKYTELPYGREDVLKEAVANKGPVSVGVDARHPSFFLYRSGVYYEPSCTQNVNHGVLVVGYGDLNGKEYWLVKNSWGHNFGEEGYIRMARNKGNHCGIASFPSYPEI

Row | IC50 [nM] | SMILES
1 | 0.5 | COc1cncc(-c2ccc(S(=O)(=O)[C@H]3C[C@@H](OC)[C@H](C(=O)NC4(C#N)CC4)C3)c(C(F)(F)F)c2)c1 (racemic) [Example 86, (1R,2R,4R) and (1S,2S,4S)-2-Methoxy-4-[4-(5-methoxy-pyridin-3-yl)-2-trifluoromethyl-benzenesulfonyl]-cyclopentanecarboxylic acid (1-cyano-cyclopropyl)-amide]
2 | 2.35 | CCN1CCC(C#N)(NC(=O)[C@@H]2C[C@@H](S(=O)(=O)c3ccc(-c4cnn(C)c4)cc3C(F)(F)F)C[C@H]2OC)CC1 (racemic) [Example 238, (1R,2R,4R) and (1S,2S,4S)-2-Methoxy-4-[4-(1-methyl-1H-pyrazol-4-yl)-2-trifluoromethyl-benzenesulfonyl]-cyclopentanecarboxylic acid (4-cyano-1-ethyl-piperidin-4-yl)-amide]
3 | 1.25 | N#CC1(NC(=O)[C@@H]2C[C@@H](S(=O)(=O)c3ccccc3C(F)(F)F)C[C@H]2Oc2ccccc2)CC1 (racemic) [Example 231, (1R,2R,4R) and (1S,2S,4S)-2-Phenoxy-4-(2-trifluoromethyl-benzenesulfonyl)-cyclopentanecarboxylic acid (1-cyano-cyclopropyl)-amide]
4 | 0.895 | CO[C@@H]1C[C@H](S(=O)(=O)c2ccc(N3CCC(O)CC3)cc2C(F)(F)F)C[C@H]1C(=O)NC1(C#N)CC1 (racemic) [Example 207, (1R,2R,4R) and (1S,2S,4S)-4-[4-(4-Hydroxy-piperidin-1-yl)-2-trifluoromethyl-benzenesulfonyl]-2-methoxy-cyclopentanecarboxylic acid (1-cyano-cyclopropyl)-amide]
5 | 0.385 | N#CC1(NC(=O)[C@@H]2C[C@@H](S(=O)(=O)c3ccc(N4CCN(C5CC5)CC4)cc3Cl)C[C@H]2C(=O)N2CC(F)(F)C2)CC1 [Example 159, (1R,2R,4R)-4-[2-Chloro-4-(4-cyclopropyl-piperazin-1-yl)-benzenesulfonyl]-2-(3,3-difluoro-azetidine-1-carbonyl)-cyclopentanecarboxylic acid (1-cyano-cyclopropyl)-amide]
6 | 1.1 | CCO[C@@H]1C[C@H](S(=O)(=O)c2ccc(Br)cc2C(F)(F)F)C[C@H]1C(=O)NC1(C#N)CC1 (racemic) [Example 113, (1R,2R,4R) and (1S,2S,4S)-4-(4-Bromo-2-trifluoromethyl-benzenesulfonyl)-2-ethoxy-cyclopentanecarboxylic acid (1-cyano-cyclopropyl)-amide]
7 | 0.4 | CO[C@@H]1C[C@H](S(=O)(=O)c2ccc(-c3ccnc(C(F)(F)F)c3)cc2C(F)(F)F)C[C@H]1C(=O)NC1(C#N)CC1 (racemic) [Example 109, (1R,2R,4R) and (1S,2S,4S)-2-Methoxy-4-[2-trifluoromethyl-4-(2-trifluoromethyl-pyridin-4-yl)-benzenesulfonyl]-cyclopentanecarboxylic acid (1-cyano-cyclopropyl)-amide]
8 | 6.95 | N#CC1(NC(=O)[C@@H]2C[C@@H](S(=O)(=O)c3ccccc3Cl)C[C@H]2OCc2ccc(Cl)c(F)c2)CC1 (racemic) [Example 249, (1R,2R,4R) and (1S,2S,4S)-4-(2-Chloro-benzenesulfonyl)-2-(4-chloro-3-fluoro-benzyloxy)-cyclopentanecarboxylic acid (1-cyano-cyclopropyl)-amide]

Second part, the compound before the results:

Row | SMILES | IC50 [nM]
9 | COC1CN(C(=O)[C@@H]2C[C@H](S(=O)(=O)c3ccccc3)C[C@H]2C(=O)NC2(C#N)CC2)C1 [Example 22, (1R,2R,4R)-4-Benzenesulfonyl-2-(3-methoxy-azetidine-1-carbonyl)-cyclopentanecarboxylic acid (1-cyano-cyclopropyl)-amide] | 5.5
10 | CCCO[C@@H]1C[C@H](S(=O)(=O)c2ccccc2C(F)(F)F)C[C@H]1C(=O)NC1(C#N)CC1 (racemic) [Example 54, (1R,2R,4R) and (1S,2S,4S)-2-Propoxy-4-(2-trifluoromethyl-benzenesulfonyl)-cyclopentanecarboxylic acid (1-cyano-cyclopropyl)-amide] | 2.1
11 | CN1CCN(C(=O)[C@@H]2C[C@H](S(=O)(=O)c3ccccc3)C[C@H]2C(=O)NC2(C#N)CC2)CC1 [Example 26, (1R,2R,4R)-4-Benzenesulfonyl-2-(4-methyl-piperazine-1-carbonyl)-cyclopentanecarboxylic acid (1-cyano-cyclopropyl)-amide] | 1.5
12 | CO[C@@H]1C[C@H](S(=O)(=O)c2ccc(-c3ccc(C)nc3)cc2C(F)(F)F)C[C@H]1C(=O)NC1(C#N)CC1 (racemic) [Example 81, (1R,2R,4R) and (1S,2S,4S)-2-Methoxy-4-[4-(6-methyl-pyridin-3-yl)-2-trifluoromethyl-benzenesulfonyl]-cyclopentanecarboxylic acid (1-cyano-cyclopropyl)-amide] | 0.6
13 | N#CC1(NC(=O)[C@@H]2C[C@@H](S(=O)(=O)c3ccccc3)C[C@H]2C(=O)N2CCC2)CC1 [Example 24, (1R,2R,4R)-2-(Azetidine-1-carbonyl)-4-benzenesulfonyl-cyclopentanecarboxylic acid (1-cyan o-cyclopropyl)-amide] | 9.6
14 | Cc1cccc(S(=O)(=O)[C@@H]2C[C@@H](C(=O)NCC#N)[C@H](C(=O)N3CCOCC3)C2)c1 [Example 5, (1R,2R,4R)-2-(Morpholine-4-carbonyl)-4-(toluene-3-sulfonyl)-cyclopentanecarboxylic acid cyanomethyl-amide] | 0.6
15 | CO[C@@H]1C[C@H](S(=O)(=O)c2ccc(-c3ccc(S(N)(=O)=O)cc3)cc2C(F)(F)F)C[C@H]1C(=O)NC1(C#N)CC1 (racemic) [Example 76, (1R,2R,4R) and (1S,2S,4S)-2-Methoxy-4-(4′-sulfamoyl-3-trifluoromethyl-biphenyl-4-sulfonyl)-cyclopentanecarboxylic acid (1-cyano-cyclopropyl)-amide] | 0.6
16 | N#CC1(NC(=O)[C@@H]2C[C@@H](S(=O)(=O)c3ccccc3)C[C@H]2C(=O)N2CCS(=O)(=O)CC2)CC1 [Example 20, (1R,2R,4R)-4-Benzenesulfonyl-2-(1,1-dioxo-1-thiomorpholine-4-carbonyl)-cyclopentanecarboxylic acid (1-cyano-cyclopropyl)-amide] | 4.3
17 | N#CC1(NC(=O)[C@@H]2C[C@@H](S(=O)(=O)c3ccccc3)C[C@H]2C(=O)N2CCOCC2)CC1 [Example 2, (1R,2R,4R)-4-Benzenesulfonyl-2-(morpholine-4-carbonyl)-cyclopentanecarboxylic acid (1-cyano-cyclopropyl)-amide] | 0.7
18 | N#CC1(NC(=O)[C@@H]2C[C@@H](S(=O)(=O)c3ccccc3)C[C@H]2C(=O)N2CCOCC2)CCC1 [Example 35, (1R,2R,4R)-4-Benzenesulfonyl-2-(morpholine-4-carbonyl)-cyclopentanecarboxylic acid (1-cyano-cyclobutyl)-amide] | 4
19 | N#CC1(NC(=O)[C@@H]2C[C@@H](S(=O)(=O)c3ccccc3)C[C@H]2C(=O)N2CC3(COC3)C2)CC1 [Example 11, (1R,2R,4R)-4-Benzenesulfonyl-2-(2-oxa-6-aza-spiro[3.3]heptane-6-carbonyl)-cyclopentanecarboxylic acid (1-cyano-cyclopropyl)-amide] | 3
20 | CO[C@@H]1C[C@H](S(=O)(=O)c2ccc(Br)cc2C(F)(F)F)C[C@H]1C(=O)NC1(C#N)CC1 (racemic) [Example 58, (1R,2R,4R) and (1S,2S,4S)-4-(4-Bromo-2-trifluoromethyl-benzenesulfonyl)-2-methoxy-cyclopentanecarboxylic acid (1-cyano-cyclopropyl)-amide] | 6.2
21 | N#CC1(NC(=O)[C@@H]2C[C@@H](S(=O)(=O)c3ccccc3Cl)C[C@H]2C(=O)N2CCOCC2)CC1 [Example 9, (1R,2R,4R)-4-(2-Chloro-benzenesulfonyl)-2-(morpholine-4-carbonyl)-cyclopentanecarboxylic acid (1-cyano-cyclopropyl)-amide] | 0.9
22 | Cn1cc(-c2ccc(S(=O)(=O)[C@H]3C[C@@H](OC4CCC4)[C@H](C(=O)NC4(C#N)CC4)C3)c(C(F)(F)F)c2)cn1 (racemic) [Example 211, (1R,2R,4R) and (1S,2S,4S)-2-Cyclobutoxy-4-[4-(1-methyl-1H-pyrazol-4-yl)-2-trifluoromethyl-benzenesulfonyl]-cyclopentanecarboxylic acid (1-cyano-cyclopropyl)-amide] | 0.255
23 | Cc1cc(Cl)ccc1S(=O)(=O)[C@@H]1C[C@@H](C(=O)NCC#N)[C@H](C(=O)N2CCN(C)CC2)C1 [Example 33, (1R,2R,4R)-4-(4-Chloro-2-methyl-benzenesulfonyl)-2-(4-methyl-piperazine-1-carbonyl)-cyclopentanecarboxylic acid cyanomethyl-amide] | 1.6
24 | N#CCNC(=O)[C@@H]1C[C@@H](S(=O)(=O)c2ccc(F)c(Cl)c2)C[C@H]1C(=O)N1CCOCC1 [Example 7, (1R,2R,4R)-4-(3-Chloro-4-fluoro-benzenesulfonyl)-2-(morpholine-4-carbonyl)-cyclopentanecarboxylic acid cyanomethyl-amide] | 0.7
25 | CO[C@@H]1C[C@H](S(=O)(=O)c2ccc(Oc3ccc(F)cc3)cc2Cl)C[C@H]1C(=O)NC1(C#N)CC1 (racemic) [Example 57, (1R,2R,4R) and (1S,2S,4S)-4-[2-Chloro-4-(4-fluoro-phenoxy)-benzenesulfonyl]-2-methoxy-cyclopentanecarboxylic acid (1-cyano-cyclopropyl)-amide] | 21.8
